This note sets out measurements from ChEMBL document CHEMBL1140902 (J Med Chem, 2009).

Molecules are shown by their SMILES.

In the first test the target is T1, Progesterone receptor (Homo sapiens, UniProt P06401).
T1 sequence (P06401 whole entry): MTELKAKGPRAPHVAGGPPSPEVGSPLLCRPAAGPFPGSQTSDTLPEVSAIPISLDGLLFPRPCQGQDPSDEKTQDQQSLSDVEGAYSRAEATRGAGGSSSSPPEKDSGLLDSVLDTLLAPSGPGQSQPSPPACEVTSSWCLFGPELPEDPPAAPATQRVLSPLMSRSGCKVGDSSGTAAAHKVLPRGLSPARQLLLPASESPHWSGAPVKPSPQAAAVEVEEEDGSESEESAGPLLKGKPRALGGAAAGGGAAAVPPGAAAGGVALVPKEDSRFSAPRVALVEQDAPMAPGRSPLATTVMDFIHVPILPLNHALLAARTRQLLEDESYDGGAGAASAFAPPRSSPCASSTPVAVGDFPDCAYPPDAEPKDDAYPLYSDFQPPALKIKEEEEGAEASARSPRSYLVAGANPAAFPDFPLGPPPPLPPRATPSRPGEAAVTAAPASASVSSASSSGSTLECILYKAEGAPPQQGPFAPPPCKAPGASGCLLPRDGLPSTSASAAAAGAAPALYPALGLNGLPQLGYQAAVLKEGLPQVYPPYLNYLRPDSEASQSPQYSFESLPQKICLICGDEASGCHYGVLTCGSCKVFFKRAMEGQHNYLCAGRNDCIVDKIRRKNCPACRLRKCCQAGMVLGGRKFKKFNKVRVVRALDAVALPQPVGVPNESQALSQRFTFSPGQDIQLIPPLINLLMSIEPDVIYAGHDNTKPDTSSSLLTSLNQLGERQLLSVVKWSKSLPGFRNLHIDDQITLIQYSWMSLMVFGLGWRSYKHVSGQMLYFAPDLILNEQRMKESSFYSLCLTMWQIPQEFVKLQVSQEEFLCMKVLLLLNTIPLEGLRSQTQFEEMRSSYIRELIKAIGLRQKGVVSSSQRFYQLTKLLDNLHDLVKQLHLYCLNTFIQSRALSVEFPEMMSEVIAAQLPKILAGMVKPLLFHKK
Description: Antagonist activity at progesterone receptor in human T47D cells assessed as inhibition of progesterone-induced alkaline phosphatase activity after 48 hrs. The class given is functional, cell-based.
Turning to `CC#C[C@]1(O)CC[C@H]2[C@@H]3CCC4=CC(=O)CCC4=C3[C@@H](c3ccc(N(C)CCCCCC(N)=O)cc3)C[C@@]21C`, the IC50 – broadly, the concentration needed to halve the response being measured – came to 550 pM. On to `CC#C[C@]1(O)CC[C@H]2[C@@H]3CCC4=CC(=O)CCC4=C3[C@@H](c3ccc(N(C)CCCCCCCC(=O)O)cc3)C[C@@]21C`, for which the IC50 is 270 pM. Turning to `CC#C[C@]1(O)CC[C@H]2[C@@H]3CCC4=CC(=O)CCC4=C3[C@@H](c3ccc(N(C)CCCCCCOC(=O)CCC(=O)O)cc3)C[C@@]21C`, the IC50 is 250 pM. On the same count and under the same terms, then `CC#C[C@]1(O)CC[C@H]2[C@@H]3CCC4=CC(=O)CCC4=C3[C@@H](c3ccc(N(C)C(=O)NCCCCCC(=O)N[C@@H](CC(C)C)C(=O)OC(C)(C)C)cc3)C[C@@]21C`, with 1700 pM. The same measure, in the same setting: the same measure for `CC#C[C@]1(O)CC[C@H]2[C@@H]3CCC4=CC(=O)CCC4=C3[C@@H](c3ccc(N(C)CCC)cc3)C[C@@]21C`: 270 pM; for `CC#C[C@]1(O)CC[C@H]2[C@@H]3CCC4=CC(=O)CCC4=C3[C@@H](c3ccc(N(C)CCCOC(=O)CCC(=O)O)cc3)C[C@@]21C`: 2100 pM. In the case of `CC#C[C@]1(O)CC[C@H]2[C@@H]3CCC4=CC(=O)CCC4=C3[C@@H](c3ccc(N(C)CCC(=O)O)cc3)C[C@@]21C`, the IC50 was determined as 34000 pM. Same read-out and setting: then `CC#C[C@]1(O)CC[C@H]2[C@@H]3CCC4=CC(=O)CCC4=C3[C@@H](c3ccc(N(C)C(=O)CCCC(=O)O)cc3)C[C@@]21C`, with 100000 pM. Consider `CC#C[C@]1(O)CC[C@H]2[C@@H]3CCC4=CC(=O)CCC4=C3[C@@H](c3ccc(N(C)CCCCCCOC(=O)CCC(=O)OC)cc3)C[C@@]21C`, for which the IC50 amounted to 170 pM.

In the case of `CC#C[C@]1(O)CC[C@H]2[C@@H]3CCC4=CC(=O)CCC4=C3[C@@H](c3ccc(N(C)CCCCCC(=O)OC)cc3)C[C@@]21C`, the IC50 was 400 pM. Regarding `CC#C[C@]1(O)CC[C@H]2[C@@H]3CCC4=CC(=O)CCC4=C3[C@@H](c3ccc(NC)cc3)C[C@@]21C` [DESMETHYLMIFEPRISTONE], the IC50 amounted to 170 pM. Same read-out and setting: then `CC#C[C@]1(O)CC[C@H]2[C@@H]3CCC4=CC(=O)CCC4=C3[C@@H](c3ccc(N(C)C(=O)Nc4ccc(Cl)cc4)cc3)C[C@@]21C`, with 270 pM; and `CC#C[C@]1(O)CC[C@H]2[C@@H]3CCC4=CC(=O)CCC4=C3[C@@H](c3ccc(N(C)CCCCCCCCCCC(=O)O)cc3)C[C@@]21C`, with 460 pM. Same read-out and setting: the same measure for `CC#C[C@]1(O)CC[C@H]2[C@@H]3CCC4=CC(=O)CCC4=C3[C@@H](c3ccc(N(C)C(=O)NCCCCCC(=O)OC)cc3)C[C@@]21C`: 2200 pM; for `CC#C[C@]1(O)CC[C@H]2[C@@H]3CCC4=CC(=O)CCC4=C3[C@@H](c3ccc(N(C)CCCCCC4OCCO4)cc3)C[C@@]21C`: 170 pM; for `CC#C[C@]1(O)CC[C@H]2[C@@H]3CCC4=CC(=O)CCC4=C3[C@@H](c3ccc(OCCCCCCCCCBr)cc3)C[C@@]21C`: 1000 pM. Still for that read-out and setting: the same measure for `CC#C[C@]1(O)CC[C@H]2[C@@H]3CCC4=CC(=O)CCC4=C3[C@@H](c3ccc(N(C)CCCOC(=O)CCC(=O)OC)cc3)C[C@@]21C`: 1200 pM; for `CC#C[C@]1(O)CC[C@H]2[C@@H]3CCC4=CC(=O)CCC4=C3[C@@H](c3ccc(N(C)CCCCCCCCCCC(=O)OC)cc3)C[C@@]21C`: 630 pM; for `CC#C[C@]1(O)CC[C@H]2[C@@H]3CCC4=CC(=O)CCC4=C3[C@@H](c3ccc(N(C)C(=S)Nc4ccc(Cl)cc4)cc3)C[C@@]21C`: 160 pM. Take `CC#C[C@]1(O)CC[C@H]2[C@@H]3CCC4=CC(=O)CCC4=C3[C@@H](c3ccc(N(C)CCCOCc4ccc(C(N)=O)c(O)c4)cc3)C[C@@]21C`: the IC50 is 460 pM. Same read-out and setting: then `CC#C[C@]1(O)CC[C@H]2[C@@H]3CCC4=CC(=O)CCC4=C3[C@@H](c3ccc(N(C)C(=O)CCCC(=O)OC)cc3)C[C@@]21C`, with 1550 pM; and `CC#C[C@]1(O)CC[C@H]2[C@@H]3CCC4=CC(=O)CCC4=C3[C@@H](c3ccc(N(C)C(=O)CCCCC(=O)OC)cc3)C[C@@]21C`, with 1800 pM. Same read-out and setting: the same measure for `CC#C[C@]1(O)CC[C@H]2[C@@H]3CCC4=CC(=O)CCC4=C3[C@@H](c3ccc(N(C)CCCCCC(=O)NCCCC)cc3)C[C@@]21C`: 900 pM. The same measure, in the same setting: the same measure for `CC#C[C@]1(O)CC[C@H]2[C@@H]3CCC4=CC(=O)CCC4=C3[C@@H](c3ccc(N(C)C(=S)NCCCC)cc3)C[C@@]21C`: 730 pM; for `CC#C[C@]1(O)CC[C@H]2[C@@H]3CCC4=CC(=O)CCC4=C3[C@@H](c3ccc(N(C)CCC(=O)Nc4ccc(C(N)=O)c(O)c4)cc3)C[C@@]21C`: 440 pM; for `CC#C[C@]1(O)CC[C@H]2[C@@H]3CCC4=CC(=O)CCC4=C3[C@@H](c3ccc(N(C)C(=O)NCCCC)cc3)C[C@@]21C`: 790 pM.

Consider `CC#C[C@]1(O)CC[C@H]2[C@@H]3CCC4=CC(=O)CCC4=C3[C@@H](c3ccc(N(C)CCCO)cc3)C[C@@]21C`, for which the IC50 came out at 120 pM. As to `CC#C[C@]1(O)CC[C@H]2[C@@H]3CCC4=CC(=O)CCC4=C3[C@@H](c3ccc(N(C)CCCCCC=O)cc3)C[C@@]21C`, the IC50 was 150 pM. The same measure, in the same setting: then `CC#C[C@]1(O)CC[C@H]2[C@@H]3CCC4=CC(=O)CCC4=C3[C@@H](c3ccc(N(C)C(=O)NCCCCCC(=O)O)cc3)C[C@@]21C`, with 72000 pM.

Turning to `CC#C[C@]1(O)CC[C@H]2[C@@H]3CCC4=CC(=O)CCC4=C3[C@@H](c3ccc(N(C)CCCCCC)cc3)C[C@@]21C`, the IC50 was 660 pM. In the case of `CC#C[C@]1(O)CC[C@H]2[C@@H]3CCC4=CC(=O)CCC4=C3[C@@H](c3ccc(N(C)CCCCCC(=O)O)cc3)C[C@@]21C`, the IC50 turned out to be 440 pM.

For the molecule `CC#C[C@]1(O)CC[C@H]2[C@@H]3CCC4=CC(=O)CCC4=C3[C@@H](c3ccc(N(C)C(=O)NCCCCCC(=O)N[C@@H](CC(C)C)C(=O)O)cc3)C[C@@]21C`, the IC50 was found to be 72000 pM. On to `CC#C[C@]1(O)CC[C@H]2[C@@H]3CCC4=CC(=O)CCC4=C3[C@@H](c3ccc(O)cc3)C[C@@]21C`, for which the IC50 is 1300 pM. For the molecule `CC#C[C@]1(O)CC[C@H]2[C@@H]3CCC4=CC(=O)CCC4=C3[C@@H](c3ccc(N(C)C(=O)CCCCC(=O)O)cc3)C[C@@]21C`, the IC50 was determined as 78000 pM. On the same count and under the same terms, the same measure for `CC#C[C@]1(O)CC[C@H]2[C@@H]3CCC4=CC(=O)CCC4=C3[C@@H](c3ccc(N(C)CCCCCCCC(=O)OC)cc3)C[C@@]21C`: 470 pM; for `CC#C[C@]1(O)CC[C@H]2[C@@H]3CCC4=CC(=O)CCC4=C3[C@@H](c3ccc(N(C)CCCCCCCCC)cc3)C[C@@]21C`: 1400 pM; for `CC#C[C@]1(O)CC[C@H]2[C@@H]3CCC4=CC(=O)CCC4=C3[C@@H](c3ccc(N(C)CCC(=O)OC)cc3)C[C@@]21C`: 160 pM. Regarding `CC#C[C@]1(O)CC[C@H]2[C@@H]3CCC4=CC(=O)CCC4=C3[C@@H](c3ccc(N(C)CCCCCCO)cc3)C[C@@]21C`, the IC50 worked out at 60 pM. On the same count and under the same terms, then `CC#C[C@]1(O)CC[C@H]2[C@@H]3CCC4=CC(=O)CCC4=C3[C@@H](c3ccc(OC)cc3)C[C@@]21C`, with 95 pM. On the same count and under the same terms, then `CC#C[C@]1(O)CC[C@H]2[C@@H]3CCC4=CC(=O)CCC4=C3[C@@H](c3ccc(N(C)C(=O)CCCCC)cc3)C[C@@]21C`, with 690 pM.

In the next test the target is T1, Progesterone receptor. Description: Antagonist activity at progesterone receptor in human T47D-C124 cells transfected with luciferase gene linked to MMTV promoter assessed as inhibition of progesterone-induced luciferase transactivation activity after 24 hrs. In kind it is functional, cell-based.
Take `CC#C[C@]1(O)CC[C@H]2[C@@H]3CCC4=CC(=O)CCC4=C3[C@@H](c3ccc(N(C)CCC)cc3)C[C@@]21C`: the IC50 was 25 pM. Still for that read-out and setting: the same measure for `CC#C[C@]1(O)CC[C@H]2[C@@H]3CCC4=CC(=O)CCC4=C3[C@@H](c3ccc(NC)cc3)C[C@@]21C` [DESMETHYLMIFEPRISTONE]: 73 pM. For `CC#C[C@]1(O)CC[C@H]2[C@@H]3CCC4=CC(=O)CCC4=C3[C@@H](c3ccc(N(C)CCCCCC4OCCO4)cc3)C[C@@]21C`, the half-inhibitory concentration (IC50) was 73 pM. Regarding `CC#C[C@]1(O)CC[C@H]2[C@@H]3CCC4=CC(=O)CCC4=C3[C@@H](c3ccc(N(C)CCCO)cc3)C[C@@]21C`, the IC50 stood at 105 pM.

Take `CC#C[C@]1(O)CC[C@H]2[C@@H]3CCC4=CC(=O)CCC4=C3[C@@H](c3ccc(N(C)CCCCCC)cc3)C[C@@]21C`: the IC50 stood at 180 pM. As to `CC#C[C@]1(O)CC[C@H]2[C@@H]3CCC4=CC(=O)CCC4=C3[C@@H](c3ccc(N(C)CCCCCCCCC)cc3)C[C@@]21C`, the IC50 was 380 pM. The same measure, in the same setting: then `CC#C[C@]1(O)CC[C@H]2[C@@H]3CCC4=CC(=O)CCC4=C3[C@@H](c3ccc(N(C)CCCCCCO)cc3)C[C@@]21C`, with 71 pM.
